Measured values: patent US4604386A, “3-(alkynylalkyloxy) cephalosporins” (Eli Lilly and Company, priority 1984, dated 1986)

How the values were obtained:
[1] = system: Streptococcus group D X66; assay: standard agar dilution-method test (MIC); assay type: cell-based
Source text: (§1) Antibiotic activity of selected compounds of Formual 1 is illustrated by the following in vitro and in vivo test data in Table I, the minimum inhibitory concentration (MIC) for representative compounds against a wide range of gram-positive and gram-negative bacteria is presented. The MIC values were obtained by the standard agar dilution-method test.

[2] = system: Klebsiella pneumoniae KAE; assay: standard agar dilution-method test (MIC); assay type: cell-based
Source text: as §1

[3] = system: Staphylococcus aureus X1.1; assay: standard agar dilution-method test (MIC); assay type: cell-based
Source text: (§2) The MIC values were obtained by the standard agar dilution-method test.

[4] = system: Klebsiella pneumoniae X26; assay: standard agar dilution-method test (MIC); assay type: cell-based
Source text: as §2

[5] = system: Staphylococcus epidermidis EPI2; assay: standard agar dilution-method test (MIC); assay type: cell-based
Source text: as §2

Escherichia coli N10 = assay: standard agar dilution-method test (MIC); assay type: cell-based
Source text: as §2

[6] = system: Klebsiella pneumoniae X65; assay: standard agar dilution-method test (MIC); assay type: cell-based
Source text: as §2

[7] = system: Streptococcus pyogenes C203; assay: standard agar dilution-method test (MIC); assay type: cell-based
Source text: as §2

[8] = system: Staphylococcus epidermidis EPI1; assay: standard agar dilution-method test (MIC); assay type: cell-based
Source text: as §2

[9] = system: Streptococcus group D 2041; assay: standard agar dilution-method test (MIC); assay type: cell-based
Source text: as §2

Escherichia coli EC14 = assay: standard agar dilution-method test (MIC); assay type: cell-based
Source text: as §2

[10] = system: Staphylococcus aureus X400; assay: standard agar dilution-method test (MIC); assay type: cell-based
Source text: as §2

Escherichia coli TEM = assay: standard agar dilution-method test (MIC); assay type: cell-based
Source text: as §2

[11] = system: Streptococcus pneumoniae Park I; assay: standard agar dilution-method test (MIC); assay type: cell-based
Source text: as §2

[12] = system: Hemophilus influenzae C.L.; assay: standard agar dilution-method test (MIC); assay type: cell-based
Source text: as §2

Hemophilus influenzae 76 = assay: standard agar dilution-method test (MIC); assay type: cell-based
Source text: as §2

[13] = system: Staphylococcus aureus S13E; assay: standard agar dilution-method test (MIC); assay type: cell-based
Source text: as §2

[14] = system: Staphylococcus aureus V41; assay: standard agar dilution-method test (MIC); assay type: cell-based
Source text: as §2

in vivo [15] = details: rat, po, 20 mg/kg
in vivo [16] = details: mouse, po, 20 mg/kg
[17] = rat, in vivo
[18] = mouse, in vivo

| Compound | Minimum Inhibitory Concentration [1] [µg/mL] | Minimum Inhibitory Concentration [2] [µg/mL] | Minimum Inhibitory Concentration [3] [µg/mL] | Minimum Inhibitory Concentration [4] [µg/mL] | Minimum Inhibitory Concentration [5] [µg/mL] | Minimum Inhibitory Concentration (Escherichia coli N10) [µg/mL] | Minimum Inhibitory Concentration [6] [µg/mL] | Minimum Inhibitory Concentration [7] [µg/mL] | Minimum Inhibitory Concentration [8] [µg/mL] | Minimum Inhibitory Concentration [9] [µg/mL] | Minimum Inhibitory Concentration (Escherichia coli EC14) [µg/mL] | Minimum Inhibitory Concentration [10] [µg/mL] | Minimum Inhibitory Concentration (Escherichia coli TEM) [µg/mL] | Minimum Inhibitory Concentration [11] [µg/mL] | Minimum Inhibitory Concentration [12] [µg/mL] | Minimum Inhibitory Concentration (Hemophilus influenzae 76) [µg/mL] | Minimum Inhibitory Concentration [13] [µg/mL] | Minimum Inhibitory Concentration [14] [µg/mL] | also measured |
| --- | --- | --- | --- | --- | --- | --- | --- | --- | --- | --- | --- | --- | --- | --- | --- | --- | --- | --- | --- |
| benzhydryl 7-(R)-[(2'R)-2'-(N-(t-butylcarbamato))-2'-phenylacetamido]-3-(prop-1'-yn-3'-yloxy)-3-cephem-4-carboxylate [Example 2] | 128 | 128 | 2 | 2 | 2 | 16 | 4 | 0.06 | 32 | 64 | 4 | 128 | 16 | 0.25 | 4 | 8 | 128 | 128 | – |
| Para-nitrobenzyl 7-(R)-phenoxyacetamido-3-(but-2'-yn-4'-yloxy)-3-cephem-4-carboxylate [Example 6] | 128 | 128 | 0.5 | 4 | 1 | 8 | 4 | 0.06 | 16 | 32 | 4 | 64 | 16 | 0.25 | 8 | 4 | 64 | 64 | – |
| Benzhydryl 7-(R)-[(2'R)-2'-(N-(t-butylcarbamato))-2'-(para-hydroxyphenyl)acetamido]-3-(prop-1'-yn-3'-yloxy)-3-cephem-4-carboxylate [Example 4] | 64 | 64 | – | 2 | 1 | 4 | 2 | 0.06 | 8 | 32 | 2 | 64 | 8 | 0.5 | 8 | 8 | 16 | 8 | – |
| Para-nitrobenzyl 7-(R)-phenoxyacetamido-3-(prop-1'-yn-3'-yloxy)-3-cephem-4-carboxylate [Example 1] | 128 | 128 | 2 | 2 | 2 | 4 | 4 | 0.25 | 8 | 128 | 2 | 64 | 8 | 1 | 4 | 4 | 32 | 32 | – |
| C#CCOC1=C(C(=O)O)N2C(=O)[C@@H](NC(=O)[C@H](N)c3ccccc3)[C@H]2SC1 [Test Compound 1, 7-(R)-[2'-(R)-2'-amino-2'-phenylacetamido]-3-(prop-1'-yn-3'-yloxy)-3-cephem-4-carboxylic acid zwitterion] | – | – | – | – | – | – | – | – | – | – | – | – | – | – | – | – | – | – | concentration at 20 min (in vivo [15]): 3900 ng/mL; concentration at 1 h (in vivo [15]): 15900 ng/mL; concentration at 2 h (in vivo [15]): 19300 ng/mL; concentration at 4 h (in vivo [15]): 14700 ng/mL; concentration at 6 h (in vivo [15]): 12300 ng/mL; concentration at 9 h (in vivo [15]): 8500 ng/mL; concentration at 20 min (in vivo [16]): 23100 ng/mL; concentration at 40 min (in vivo [16]): 12400 ng/mL; concentration at 1 h (in vivo [16]): 4000 ng/mL; concentration at 2 h (in vivo [16]): 850 ng/mL; plasma levels in rats [17]: high plasma levels; oral absorption characteristics in mice [18]: excellent oral absorption characteristics |
| Para-nitrobenzyl 7-(R)-[(2'R)-2'-(N-(t-butylcarbamato))-2' -phenylacetamido]-3-(prop-1'-yn-3'-yloxy)-3-cephem-4-carboxylate [Example 3] | 128 | 128 | 8 | 64 | 8 | 128 | 128 | 0.5 | 128 | 128 | 64 | 128 | 128 | 1 | 128 | 128 | 128 | 128 | – |
